The results in this text go back to US20240101496A1, “SYNERGISTIC ACTION OF DCD AND ALKOXYPYRAZOLES AS NITRIFICATION INHIBITORS” (BASF SE, priority 2021, published 2024).

Structures are written as SMILES.

Assay [1] deals with nitrification in soil Limburgerhof. The assay can be described thus: Inhibition of nitrification in soil, mixtures with R^1 is CH2CH3, tested analogously (50 g soil, 4 replicates, 28 and 42 days). The following applies: R^1 is CH2CH3 series. The protocol:
(§1) 100 g soil (soil Limburgerhof with pH(CaCl2) 6.8; 73% sand, 23% silt, 4% clay, which is classified according to FAO as a sandy loam) is filled into 500 ml plastic bottles and is moistened to 50% water holding capacity. The soil is incubated at 20° C. for two weeks prior to the experiments to activate the microbial biomass. 1 ml test solution, containing the components of the mixture in the appropriate concentration (usually from 0.1 to 3.13% (w/w) of fertilized NH4—N), and 10 mg nitrogen in the form of ammoniumsulfate-N(NH4—N) is added to the soil and everything mixed well. Unfertilized controls received 1 ml pure water. Bottles are capped but loosely to allow air exchange. The bottles are then incubated at 20° C. for 0 and 28 days in Experiment 1, and for 0 and 42 days in Experiment 2.
(§2) For analysis, 300 ml of a 1% K2SO4-solution is added to the bottle containing the soil and shaken for 2 hours in a horizontal shaker at 150 rpm. Then the whole solution is filtered through a filter (Macherey-Nagel Filter MN 807 ¼). Ammonium and nitrate content is then analyzed in the filtrate using an autoanalyzer. Ammonium was quantified via an indophenol blue dye at 660 nm, and nitrate via an azo dye at 540 nm.
The nitrification inhibition is expressed as % of NH4—N recovery from fertilized NH4—N(100%) after subtraction of unfertilized control soil, and as % inhibition of NO3—N formation (% reduction of NO3^− production) according to the formula: […]
(§3) The results were compared with the results calculated by Colby (Colby, S.R., Calculating synergistic and antagonistic responses of herbicide combinations, Weeds, 15, pp. 20-22, 1967) for an additive effect.
(§4) Colby's formula:E=x+y−x·y/100 • E=expected efficacy, expressed in % of the untreated control, when using the mixture comprising the components (i) and (ii) at concentrations a and b; • x=efficacy, expressed in % of the untreated control, when using component (i) at the concentration a; • y=efficacy, expressed in % of the untreated control, when using component (ii) at the concentration b.
The following mixtures were tested analogously using 50 g soil Limburgerhof as defined above and ammonium sulfate as fertilizer in an amount N of 10 mg NH4N/100 g soil (number of replicates: 4)

The test system is the same in assay [2]. The assay can be described thus: Inhibition of nitrification in soil, Experiment 1 (incubation 28 days). The procedure:
(§5) The mixtures of the invention were tested as follows in terms of the inhibition of nitrification:
as §1, §2
(§6) The nitrification inhibition is expressed as % of NH4—N recovery from fertilized NH4—N(100%) after subtraction of unfertilized control soil, and as % inhibition of NO3—N formation (% reduction of NO3^− production) according to the formula:
(§7) In every experiment three tests (n=3) regarding the inhibition of nitrification were performed in each case.
as §3, §4

Assay [3] has the same test system. Put plainly: Inhibition of nitrification in soil, Experiment 2 (incubation 42 days). The procedure: as §5, §1, §2, §6, §7, §3, §4
[4] abbreviates: (i) 0, (ii) 1.25 wt.-% relative to NH4—N.
Where [5] appears, read: (i) 0, (ii) 3.13 wt.-% relative to NH4—N.
The mark [6] stands for this setting: (i) 0, (ii) 0.5 wt.-% relative to NH4—N.
[7] abbreviates: (i) 0, (ii) 1 wt.-% relative to NH4—N.
Setting [8] is: (i) 0, (ii) 2 wt.-% relative to NH4—N.
Where [9] appears, read: (i) 0, (ii) 0.2 wt.-% relative to NH4—N.
Setting [10] is: (i) 0.1, (ii) 0 wt.-% relative to NH4—N.
Where [11] appears, read: (i) 0.2, (ii) 0 wt.-% relative to NH4—N.
[12] abbreviates: (i) 0.4, (ii) 0 wt.-% relative to NH4—N.
[13] abbreviates: (i) 0.8, (ii) 0 wt.-% relative to NH4—N.
The mark [14] stands for this setting: (i) 0.3, (ii) 0 wt.-% relative to NH4—N.
Where [15] appears, read: (i) 0.9, (ii) 0 wt.-% relative to NH4—N.
Setting [16] is: (i) 2.7, (ii) 0 wt.-% relative to NH4—N.

On to `N#CN=C(N)N` [Component (ii), Dicyandiamide], for which the “% Inhibition of NO3^− production after 28 days, Measured” value was 4.3% in assay [1] (setting [4]); 15.7% in assay [1] (setting [5]); −1.2% in assay [2] ((i) 0, (ii) 0.25 wt.-% relative to NH4—N); 7.7% in assay [2] (setting [6]); 3.5% in assay [2] (setting [7]); 16.3% in assay [2] (setting [8]). Moreover, the “% Inhibition of NO3^− production after 42 days, Measured” value in assay [1] (setting [4]) is 4.0%; in assay [1] (setting [5]), 4.0%; in assay [3] (setting [9]), 9.2%; in assay [3] (setting [6]), 10.4%; in assay [3] (setting [4]), 10.0%; in assay [3] (setting [5]), 15.4%. Moreover, the “% NH4—N recovery from fertilized NH4—N after 28 days, Measured” value in assay [1] (setting [4]) is listed as 0.0%; in assay [1] (setting [5]), 0.0%; in assay [2] (setting [7]) it was 0.8%; in assay [2] (setting [8]), 9.0%. In addition, the “% NH4—N recovery from fertilized NH4—N after 42 days, Measured” value in assay [1] (setting [4]) turned out to be 0.0%; in assay [1] (setting [5]), 0.0%; in assay [3] (setting [9]), 0%.

Regarding `COc1cc(C)n[nH]1` [Component (i)], the “% Inhibition of NO3^− production after 28 days, Measured” value in assay [2] (setting [10]) was found to be 0.5%; in assay [2] (setting [11]) it was 25.8%; in assay [2] (setting [12]) it was 44.2%; in assay [2] (setting [13]), 67.6%. Besides, the “% NH4—N recovery from fertilized NH4—N after 28 days, Measured” value in assay [2] (setting [10]) was found to be 0.7%; in assay [2] (setting [11]) it was 17.2%; in assay [2] (setting [12]), 41.8%; in assay [2] (setting [13]) it was 62.6%. For the same molecule, the “% Inhibition of NO3^− production after 42 days, Measured” value in assay [3] (setting [10]) is given as 2.5%; in assay [3] (setting [14]), 12.2%; in assay [3] (setting [15]), 42.1%; in assay [3] (setting [16]), 83.8%. For the same molecule, the “% NH4—N recovery from fertilized NH4—N after 42 days, Measured” value in assay [3] (setting [14]) came out at 1.9%; in assay [3] (setting [15]), 29.6%; in assay [3] (setting [16]), 64.4%.
